# Measurements: patent publication US20230014226A1, “NEW COMPOUNDS AND METHODS” (BenevolentAI Bio Limited, priority 2019, published 2023)
# pIC50: −log10 of the molar value. Read-outs that look alike come from different tables or passages of the source.
# How the values were obtained:
# [1] = system: HUVEC (human umbilical venous endothelial cells); experiment: HUVEC Tube Formation assay; assay type: cell-based
# Experimental: HUVEC (human umbilical venous endothelial cells, 1.5×10^4/well, ATCC CRL-1730) are placed in an earlier prepared 96-well plate. Test substance and/or vehicle is then added to each well in a final concentration of 0.4% DMSO in growth medium under an atmosphere of 5% CO2 at 37° C. After an 18 h incubation period, morphology of the endothelial cell tubes, which resemble a capillary-like network, are evaluated by a confocal high-content imaging system. Disruption (anti-angiogenesis) of total tube length is measured from each photograph and determined relative to the vehicle control group. […] Compounds are screened at 30, 3, 0.3, 0.03 and 0.003 μM (or μg/mL) in triplicate.
# [2] = system: SC-hCMs (stem cell cardiomyocytes); experiment: Cardiomyocyte assay (CRL), iPSC cardiomyocytes; assay type: cell-based, human; conditions: for ΔΔ Na Spike Amp at 10 μM, 48 h (%): corrected by time matched controls
# Experimental: All measurements were performed at physiological temperature in a tissue culture incubator (37° C.; 5% CO2). Test article, positive controls and vehicle were added in a sterile tissue culture hood.
# At least 10 h before compound addition SC-hCMs were exposed to the fresh culture medium. Before compound addition a one-minute recording of field potentials and impedance signals (baseline) was obtained. Test articles, vehicle and positive controls were added as a 2× concentration. One-minute recordings were obtained 0.5, 1, 2, 24 and 48 h after test article addition.
# At the time of drug application, culture medium was added to an independent 96 well plate that was incubated in a tissue culture incubator for 48 h. This culture medium was used as the blank of the cTnI release assay.
# After the 48 h exposure recording, 150 μL of each well was centrifuged to remove debris. The supernatant was collected and frozen for later cTnI content analysis using an ELISA plate according the manufacturer's instructions (Abcam, cat #ab200016).
# Data was stored on the Charles River Laboratories computer network for off-line analysis. Data acquisition was performed using RTCA Cardio Software.
# Data analysis was performed using RTCA Cardio Software, Microsoft Excel and Matlab scripts. Data were reported as mean±SEM.
# The following field potential parameters were quantitated: Sodium Spike amplitude, Sodium Spike Rate, field potential duration (FPD), Bazett corrected field potential duration (FPDcB), and dysrhythmic events if present.
# The following impedance parameters were quantitated: Cell Index, peak amplitude, relaxation from peak to 50% amplitude (Rel50) and twitch duration.
# The sodium spike is the voltage signal produced by the propagation of the depolarizing wave (positive peak) and the local activation of sodium channels (negative peak). The sodium spike amplitude is the voltage difference (in […]) between the positive and negative peaks of the sodium spike. The Sodium Spike Rate is a measure of the rate of sodium spike generation (spikes/min) produced by the spontaneous beating of stem cell cardiomyocytes.
# Abnormal rhythm activity was characterized by the presence of the following proarrhythmic markers:
# Triggered activity: Triggered activity (TA) is activity characterized by the presence of voltage oscillations during the repolarization period (Early After Depolarizations, EADs) or after the repolarization is completed (Delayed After Depolarizations, DADs). They are produced by different mechanisms. EADs are due to reactivation of sodium and calcium currents due to prolongation of the action potential. DADs are due to transient releases of calcium from intracellular calcium stores. Both EADs and DADs can trigger action potentials (ectopic beats, EB).
# Impedance instability: Impedance instability (II) consist of small oscillations of the impedance signal during the slower relaxation phase of the impedance twitch sometimes associated with small oscillations of the field potential (FPO). […] II informs about the possibility of drug-induced delayed repolarization setting the background where more robust proarrhythmic markers like EADs and DADs occur.
# The SEM of the difference was calculated according to the following equation ΔΔSEM=(SEMtreatment2+SEMcontrol2)0.5.
# The statistical analysis includes 1) a Student paired t-test to evaluate the changes respect to baseline and, 2) a multi-comparison analysis (Dunnett's test) of A % changes respect to time matched controls. An alpha probability of 0.05 was considered significant.
# HUVEC = HUVEC Cell Viability (CV) assay; assay type: cell-based, human; conditions: Homo sapiens, alamarBlue
# Experimental: Cells are seeded at 10,000 cells/well in 96-well plates in HUVEC specific cell culture media. Cells are plated and cultured overnight (16-24 h) at 37° C. After the overnight culture, cells are washed and fed with the Assay Medium. Test compounds are applied and incubated with the cells for the designated time period, after which the cell viability is measured by alamarBlue method. […] The final DMSO concentration is 1%.
# Fluorescence readings are recorded after the test compound and alamarBlue incubation. The excitation and emission wavelengths are 530 nm and 590 nm, respectively.
# The percent of control is calculated by comparing the readings in the presence of the test compound to the vehicle control. Subsequently, the percent inhibition is calculated by subtracting the percent control activity from 100. IC50 values (concentration causing a half-maximal inhibition of the control value) are determined by non-linear regression analysis of the concentration-response curves using the Hill equation.
# The reference compound used for this assay is Staurosporine.
# [3] = system: murine Hb9-GFP+ motor neurons in co-culture with ALS patient iAstrocytes; experiment: Human iAstrocyte - murine Hb9-GFP+ motor neuron co-culture; assay type: cell-based, human iAstrocytes; conditions: for rescue of motor neuron survival in co-culture with patient-derived iAstrocytes (FIG. 3): 72 hours co-culture, dose dependant, maximum responses close to positive control (1 μM Nilotinib); for efficacy at very high concentrations (motor neuron survival): potentially due to compound toxicity
# Source text: iNPCs (induced Neuronal Progenitor Cells) were derived from ALS patient fibroblasts as described previously (Meyer et al. 20148). iNPCs were differentiated into iAstrocytes by culturing in iAsrocyte media for at least 5 days. Murine motor neurons expressing the green fluorescent protein (GFP) under the Hb9 motor neuron-specific promoter (called from now on Hb9-GFP+) were differentiated from murine embryonic stem cells via embryoid bodies (EBs), as previously described (Haidet-Phillips et al. 20119, Wichterle et al. 200210).
# iNPCs and mESC were split into iAstrocyte media and mEB media respectively on the same day, such that iAstrocytes and motor neurons will have both differentiated for 7 days when seeded together in co-culture.
# Changed media on iAstrocytes, and split using accutase if 90-100% confluent 3 days after seeding from iNPCs. iAstrocytes were left a further 2 days in iAstrocyte media until seeded onto 384-well plates.
# Diluted fibronection 1:400 in PBS, and 5 μL added per well. The plate was incubated with fibronectin at room temp for at least 5 mins.
# The media was removed from iAstrocytes, and washed in PBS. 1 mL accutase per 10 cm plate was added, and incubated at 37° C. for 4 mins. The plate was tapped to dislodge any remaining iAstrocytes. The iAstrocytes were resuspended in iAstro media, and centrifuged at 200×g for 4 mins. The supernatant was removed, the falcon was flicked to vortex the cells, and resuspended the cells in an appropriate amount of iAstrocyte media. Counted cells using the haemocytometer, and diluted cells to an appropriate dilution for seeding. Seeded 1-2,000 iAstrocytes in 35 μL media on fibronectin-coated 384-well plates. Centrifuged 384-well plates at 1,760×rpm for 60 s using a PK120 (ALC) centrifuged (in neurogenetics) to collect media and cells to base of wells. Plates were left for 24 h for iAstrocytes to adhere to plate.
# Drugs were delivered in 100% drug-grade DMSO to iAstrocyte media using an Echo550 liquid handler (Labcyte). 384-well plates were centrifuged at 1,760×rpm for 60 s using a PK120 (ALC) centrifuge.
# 2 plates of EBs were collected in a 50 mL tube and centrifuged for 4 mins at 200×g. The supernatant was removed from EBs after centrifugation, and washed in 10 mL PBS then centrifuged again for 4 mins at 200×g, and PBS wash removed.
# For each 50 mL tube, 2.75 mL EB dissociation buffer was added and then 250 μL 200 U/mL (10×) Papain. The solution was gently pipetted up and down 10 times, using a P1000 pipette, against the side of the falcon (EB pellet was not pipetted directly). 50 mL tube was put in 37° C. water bath and incubated for 5 mins. Tube removed every 3 mins and gently shaken. After 5 mins, additional 2 mL of EB dissociation and 100 μL 200 U/mL (10×) Papain were added, which was then pipette again 5 times with P1000 pipette, and returned to the water bath for another 5 mins. It was returned to water bath as before, and incubated for no longer than 15-20 mins.
# Centrifuged for 5 mins at 300×g. Each 50 mL tube, 2.7 mL EB dissociation was prepared, to which 300 μL FBS and 150 μL 0.5 mg/mL DNaseI was added. The supernatant was removed from dissociated EBs and 3 mL of the FBS/DNaseI mix was added, pipetted up and down with P1000 pipette about 5 times. 5 mL FBS was added very slowly to the bottom of the falcon containing the dissociated EBs. The supernatant was removed and the cells very gently resuspended in about 3 mL MN media (more used if the pellet is large) and filtered through a 40 μm filter. 1 mL extra MN media was added to wash the filter.
# 2,500 murine Hb9-GFP+ motor neurons were seeded per well in 10 μL motor neuron media on top of the pre-treated iAstrocytes. 384-well plates were centrifuged at 1,760×rpm for 60 s using a PK120 (ALC) centrifuge.
# Day8 15 μL motor neuron media were added per well. Hb9-GFP+ motor neurons were imaged using an INCELL analyser 2000 (GE Healthcare)—day 1 of co-culture. […]
# [4] = system: α-synuclein in ReNcell VM Neuronal cells; experiment: Modulation of α-synuclein aggregation; assay type: cell-based; conditions: for amount of α-synuclein present in ReNcell VM neuronal cells (FIG. 4): 6 days of compound treatment, antibodies Syn205 and MJF-14; for pIC50: ReNcell VM, 100% = reduction equal to 10 μM KU0063794, 0% = 0.1% DMSO
# Experimental: Compounds were assessed for their ability to modulate α-synuclein aggregation. ReNcell VM Neuronal cells were transduced with α-synuclein encoded adenovirus, and compounds were added after 24 hours. After 72 hours, compound was refreshed. After an additional 72 h, cells were fixated (a total of 6 days of compound treatment). Two distinct α-synuclein antibodies were added (Syn205 and MJF-14), imaging was performed on IN Cell 2200 at 10× magnification. Immunoreactivity is quantified by a high content algorithm. Compound data is normalized to a negative control (0.1% DMSO) and a positive control (10 μM KU0063794; CAS 938440-64-3).
smiles,measurement,setting,value
"Cc1ccc(C(=O)Nc2ccc(CN3CCN(C)CC3)c(C(F)(F)F)c2)cc1C#Cc1cnc2cccnn12 [Comparative Example 2, 3-(imidazo[1,2-b]pyridazin-3-ylethynyl)-4-methyl-N-[4-[(4-methyl-1-piperazinyl)methyl]-3-(trifluoromethyl)phenyl]benzamide, reference compound]",GI50,"[1]; 18 h, read-out: Tube formation GI50 (μM)",1.2 µM
same,"Proarrhythmic Markers at 10 μM, 48 h","[2]; 10 μM, 48 h",Q and RV
same,"ΔΔ Na Spike Amp at 10 μM, 48 h (%)","[2]; 10 μM, 48 h",(cells quiescent)
same,pIC50,HUVEC,6.49
"Cc1cn(-c2cc(NC(=O)c3ccc(C)c(Nc4nccc(-c5cccnc5)n4)c3)cc(C(F)(F)F)c2)cn1 [Comparative Example 3, 4-methyl-N-[3-(4-methylimidazol-1-yl)-5-(trifluoromethyl)phenyl]-3-[(4-pyridin-3-ylpyrimidin-2-yl)amino]benzamide, reference compound]",GI50,"[1]; 18 h incubation, read-out: Tube formation GI50",> 10 µM
same,"Proarrhythmic Markers at 10 μM, 48 h","[2]; 10 μM, 48 h",II and TA
same,"ΔΔ Na Spike Amp at 10 μM, 48 h (%)","[2]; 10 μM, 48 h",−96.2%
same,pIC50,HUVEC,5.44
"Cc1ccc(C(=O)Nc2cnn(C(C)(C)C)c2)cc1C#Cc1cccnc1 [Example 10, N-(1-tert-butyl-1H-pyrazol-4-yl)-4-methyl-3-[2-(pyridin-3-yl)ethynyl]benzamide]",rescue of motor neuron survival in co-culture with patient-derived iAstrocytes (FIG. 3),[3],rescue motor neuron survival
"Cc1ccc(C(=O)Nc2cnn(C(C)C3CC3)c2)cc1C#Cc1cccnc1 (centres unmarked) [Example 17, N-[1-(1-cyclopropylethyl)-1H-pyrazol-4-yl]-4-methyl-3-[2-(pyridin-3-yl)ethynyl]benzamide]",rescue of motor neuron survival in co-culture with patient-derived iAstrocytes (FIG. 3),[3],rescue motor neuron survival
same,efficacy at very high concentrations (motor neuron survival),[3],reduction in efficacy at very high concentrations
"Cc1ccc(C(=O)Nc2cnn(C(C)C)c2)cc1C#Cc1cccnc1 [Example 24, N-(1-isopropylpyrazol-4-yl)-4-methyl-3-[2-(3-pyridyl)ethynyl]benzamide]",rescue of motor neuron survival in co-culture with patient-derived iAstrocytes (FIG. 3),[3],rescue motor neuron survival
same,efficacy at very high concentrations (motor neuron survival),[3],reduction in efficacy at very high concentrations
same,amount of α-synuclein present in ReNcell VM neuronal cells (FIG. 4),[4],dose dependant reduction
same,pIC50,[4],5.00 to 6.00
"Cc1ccc(C(=O)Nc2cc3n(n2)CCC3(C)C)cc1C#Cc1cccnc1 [Example 26, N-(4,4-dimethyl-5,6-dihydropyrrolo[1,2-b]pyrazol-2-yl)-4-methyl-3-[2-(3-pyridyl)ethynyl]benzamide]",rescue of motor neuron survival in co-culture with patient-derived iAstrocytes (FIG. 3),[3],rescue motor neuron survival
same,amount of α-synuclein present in ReNcell VM neuronal cells (FIG. 4),[4],dose dependant reduction
same,pIC50,[4],5.00 to 6.00
"Cc1cn(-c2cc(NC(=O)c3ccc(C)c(Nc4nccc(-c5cccnc5)n4)c3)cc(C(F)(F)F)c2)cn1 [nilotinib, Nilotinib]",effect on sodium spike amplitude vs. control (given as reduction for nilotinib and Example 39),[2]; 10 μM after 48 hours,96.2%
same,proarrhythmic markers observed,"[2]; 10 μM, 48 h",triggered activity and impedance instability
